System: SREBP pathway
Experiment: SREBP luciferase reporter gene system (SRE-luciferase assay)
Format: cell-based, human
Conditions: Huh-7/SRE-luc cells, sterol-deficient medium, 0.01-10 µM
Method in brief: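 Huh-7 cells stably carrying LDLR promoter-luciferase plus GFP were treated 16 h in sterol-deficient medium (5% lipoprotein-deficient serum, 2 µM lovastatin, 10 µM mevalonic acid) at 0.01–10 µM. Luciferase/GFP ratio measured as pathway activity; inhibition versus DMSO fitted to a four-parameter model for IC50.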

| SMILES | IC50 (Homo sapiens, Huh-7, 16 h) | IC50 (16 hours) |
| --- | --- | --- |
| C[C@H](CCC[C@@H](O)c1n[nH]c2ccccc12)[C@H]1CC[C@H]2[C@H]3[C@H](CC[C@]12C)[C@@]1(C)CC[C@H](O)[C@H](O)[C@@H]1CC3(F)F (stereo in doubt) [Compound 320, (1R,3aS,3bS,5aR,6R,7S,9aR,9bS,11aR)-4,4-difluoro-1-[(2R,6R)-6-hydroxy-6-(1H-indazol-3-yl)hexan-2-yl]-9a,11a-dimethylhexadecahydro-1H-cyclopenta[1,2-a]phenanthrene-6,7-diol] | 0.207 µM | – |
| C[C@H](CCCC(O)c1cccc2cn[nH]c12)[C@H]1CC[C@H]2[C@H]3[C@H](CC[C@]12C)[C@@]1(C)CC[C@H](O)[C@H](O)[C@@H]1CC3(F)F (single isomer, unassigned) [Compound 269, (1R,3aS,3bS,5aR,6R,7S,9aR,9bS,11aR)-4,4-difluoro-1-[(2R,6R)-6-hydroxy-6-(1H-indazol-7-yl)hexan-2-yl]-9a,11a-dimethylhexadecahydro-1H-cyclopenta[1,2-a]phenanthrene-6,7-diol or (1R,3aS,3bS,5aR,6R,7S,9aR,9bS,11aR)-4,4-difluoro-1-[(2R,6S)-6-hydroxy-6-(1H-indazol-7-yl)hexan-2-yl]-9a,11a-dimethylhexadecahydro-1H-cyclopenta[1,2-a]phenanthrene-6,7-diol] | – | 0.8 µM |
| COc1cccc(F)c1C(CCC[C@@H](C)[C@H]1CC[C@H]2[C@H]3[C@H](CC[C@]12C)[C@@]1(C)CC[C@H](O)[C@H](O)[C@@H]1CC3(F)F)=NO (single isomer, unassigned) [Compound 211, [(1Z,5R)-5-[(1R,3aS,3bS,5aR,6R,7S,9aS,9bS,11aR)-4,4-difluoro-6,7-dihydroxy-9a,9b,11a-trimethylhexadecahydro-1H-cyclopenta[1,2-a]phenanthren-1-yl]-1-(2-fluoro-6-methoxyphenyl)hexylidene]hydroxylamine or [(1E,5R)-5-[(1R,3aS,3bS,5aR,6R,7S,9aR,9bS,11aR)-4,4-difluoro-6,7-dihydroxy-9a,11a-dimethylhexadecahydro-1H-cyclopenta[1,2-a]phenanthren-1-yl]-1-(2-fluoro-6-methoxyphenyl)hexylidene]hydroxylamine] | 0.08 µM | – |
| COc1cc(F)cc(F)c1[C@@H](O)CCC[C@@H](C)[C@H]1CC[C@H]2C3=C(F)C[C@H]4[C@@H](O)[C@@H](O)CC[C@]4(C)[C@H]3CC[C@]12C (single isomer, unassigned) [Compound 202] | 0.411 µM | – |
| C[C@H](CCCC(O)c1ccc(F)nc1OCC1COC1)[C@H]1CC[C@H]2[C@H]3[C@H](CC[C@]12C)[C@@]1(C)CC[C@H](O)[C@H](O)[C@@H]1CC3(F)F (stereo partly drawn) [Compound 383, (1R,3aS,3bS,5aR,6R,7S,9aR,9bS,11aR)-4,4-difluoro-1-[(2R)-6-{6-fluoro-2-[(oxetan-3-ylmethyl)oxy]pyridin-3-yl}-6-hydroxyhexan-2-yl]-9a,11a-dimethylhexadecahydro-1H-cyclopenta[1,2-a]phenanthrene-6,7-diol] | 0.041 µM | – |
| C[C@H](CCCC(O)c1cccc2nn[nH]c12)[C@H]1CC[C@H]2[C@H]3[C@H](CC[C@]12C)[C@@]1(C)CC[C@H](O)[C@H](O)[C@@H]1CC3(F)F (stereo partly drawn) [Compound 282, (1R,3aS,3bS,5aR,6R,7 S,9aR,9bS,11aR)-4,4-Difluoro-1-[(2R)-6-hydroxy-6-(3H-benzo[d][1,2,3]triazol-4-yl)hexan-2-yl]-9a,11a-dimethylhexadecahydro-1H-cyclopenta[1,2-a]phenanthrene-6,7-diol] | 0.389 µM | – |
| COc1ccnc(OC)c1C(O)CCC[C@@H](C)[C@H]1CC[C@H]2[C@H]3[C@H](CC[C@]12C)[C@@]1(C)CC[C@H](O)[C@H](O)[C@@H]1CC3(F)F (single isomer, unassigned) [Compound 172, (1R,3aS,3bS,5aR,6R,7S,9aR,9bS,11aR)-1-[(2R,6R)-6-(2,4-dimethoxypyridin-3-yl)-6-hydroxyhexan-2-yl]-4,4-difluoro-9a,11a-dimethylhexadecahydro-1H-cyclopenta[1,2-a]phenanthrene-6,7-diol or (1R,3aS,3bS,5aR,6R,7S,9aR,9bS,11aR)-1-[(2R,6S)-6-(2,4-dimethoxypyridin-3-yl)-6-hydroxyhexan-2-yl]-4,4-difluoro-9a,11a-dimethylhexadecahydro-1H-cyclopenta[1,2-a]phenanthrene-6,7-diol] | – | 0.113 µM |
| C[C@H](CCC[C@H](O)c1nn(C)c2ccccc12)[C@H]1CC[C@H]2[C@H]3[C@H](CC[C@]12C)[C@@]1(C)CC[C@H](O)[C@H](O)[C@@H]1CC3(F)F [Compound 323, (1R,3aS,3bS,5aR,6R,7S,9aR,9bS,11aR)-4,4-difluoro-1-[(2R,6S)-6-hydroxy-6-(1-methylindazol-3-yl)hexan-2-yl]-9a,11a-dimethylhexadecahydro-1H-cyclopenta[1,2-a]phenanthrene-6,7-diol] | 0.262 µM | – |
| C[C@H](CCCC(O)c1cccnc1F)[C@H]1CC[C@H]2[C@H]3[C@H](CC[C@]12C)[C@@]1(C)CC[C@H](O)[C@H](O)[C@@H]1CC3(F)F (stereo partly drawn) [Compound 80, (1R,3aS,3bS,5aR,6R,7S,9aR,9bS,11aR)-4,4-difluoro-1-[(2R)-6-(2-fluoropyridin-3-yl)-6-hydroxyhexan-2-yl]-9a,11a-dimethylhexadecahydro-1H-cyclopenta[1,2-a]phenanthrene-6,7-diol] | 0.514 µM | – |
| C[C@H](CCC[C@H](O)c1ccc(F)nc1OCC1COC1)[C@H]1CC[C@H]2[C@H]3[C@H](CC[C@]12C)[C@@]1(C)CC[C@H](O)[C@H](O)[C@@H]1CC3(F)F [Compound 385, (1R,3aS,3bS,5aR,6R,7S,9aR,9bS,11aR)-4,4-difluoro-1-[(2R,6S)-6-{6-fluoro-2-[(oxetan-3-ylmethyl)oxy]pyridin-3-yl}-6-hydroxyhexan-2-yl]-9a,11a-dimethylhexadecahydro-1H-cyclopenta[1,2-a]phenanthrene-6,7-diol] | 0.332 µM | – |
| COc1ccccc1C(O)CCC[C@@H](C)[C@H]1CC[C@H]2C3=C(F)C[C@H]4C[C@@H](O)CC[C@]4(C)[C@H]3CC[C@]12C (stereo partly drawn) [Compound 73, (1R,3aR,5aR,7S,9aS,9bR,11aR)-4-fluoro-1-[(2R)-6-hydroxy-6-(2-methoxyphenyl)hexan-2-yl]-9a,11a-dimethyl-2,3,3a,5,5a,6,7,8,9,9a,9b,10,11,11a-tetradecahydro-1H-cyclopenta[1,2-a]phenanthren-7-ol] | 0.55 µM | – |
| C[C@H](CCC(=O)N(C)c1ccccc1F)[C@H]1CC[C@H]2[C@@H]3CC[C@H]4[C@@H](O)[C@@H](O)CC[C@]4(C)[C@H]3CC[C@]12C [Compound 47, (3S,4R,5R,8S,9S,10R,13R,14S,17R,20R)-N-(2-fluorophenyl)-3,4-dihydroxy-N-methyl-5α-cholan-24-amide] | 0.05 µM | – |
| C[C@H](CCC[C@@H](O)c1cccc2c1cnn2C)[C@H]1CC[C@H]2C3=C(F)C[C@H]4[C@@H](O)[C@@H](O)CC[C@]4(C)[C@H]3CC[C@]12C [Compound 253, (1R,3aR,5aR,6R,7S,9aR,9bR,11aR)-4-fluoro-1-[(2R,6R)-6-hydroxy-6-(1-methylindazol-4-yl)hexan-2-yl]-9a,11a-dimethyl-2,3,3a,5,5a,6,7,8,9,9a,9b,10,11,11a-tetradecahydro-1H-cyclopenta[1,2-a]phenanthrene-6,7-diol] | 0.016 µM | – |
| C[C@H](CCN(C)C(=O)c1ccccc1F)[C@H]1CC[C@H]2[C@@H]3CC[C@@]4(C)[C@@H](O)[C@@H](O)CC[C@]4(C)[C@H]3CC[C@]12C [Compound 15B, 2-fluoro-N-[(3R)-3-[(1R,3aS,3bS,5aR,6R,7S,9aR,9bS,11aR)-6,7-dihydroxy-5a,9a,11a-trimethylhexadecahydro-1H-cyclopenta[1,2-a]phenanthren-1-yl]butyl]-N-methylbenzamide] | – | 0.32 µM |
| COc1nccnc1[C@H](O)CCC[C@@H](C)[C@H]1CC[C@H]2[C@H]3[C@H](CC[C@]12C)[C@@]1(C)CC[C@H](O)[C@H](O)[C@@H]1CC3(F)F [Compound 154, (1R,3aS,3bS,5aR,6R,7S,9aR,9bS,11aR)-4,4-difluoro-1-[(2R,6R)-6-hydroxy-6-(3-methoxypyrazin-2-yl)hexan-2-yl]-9a,11a-dimethylhexadecahydro-1H-cyclopenta[1,2-a]phenanthrene-6,7-diol] | 0.242 µM | – |
| COc1ccc(F)cc1[C@@H](O)CCC[C@@H](C)[C@H]1CC[C@H]2[C@H]3[C@H](CC[C@]12C)[C@@]1(C)CC[C@H](O)[C@H](O)[C@@H]1CC3(F)F [Compound 168, (1R,3aS,3bS,5aR,6R,7S,9aR,9bS,11aR)-4,4-difluoro-1-[(2R,6S)-6-(5-fluoro-2-methoxyphenyl)-6-hydroxyhexan-2-yl]-9a,11a-dimethylhexadecahydro-1H-cyclopenta[1,2-a]phenanthrene-6,7-diol] | 0.092 µM | – |
| C[C@H](CCC[C@H](O)c1cc2ccccc2o1)[C@H]1CC[C@H]2[C@H]3[C@H](CC[C@]12C)[C@@]1(C)CC[C@H](O)[C@H](O)[C@@H]1CC3(F)F [Compound 316, (1R,3aS,3bS,5aR,6R,7S,9aR,9bS,11aR)-1-[(2R,6S)-6-(1-benzofuran-2-yl)-6-hydroxyhexan-2-yl]-4,4-difluoro-9a,11a-dimethylhexadecahydro-1H-cyclopenta[1,2-a]phenanthrene-6,7-diol] | 0.145 µM | – |
| COc1cncc(F)c1C(O)CCC[C@@H](C)[C@H]1CC[C@H]2[C@H]3[C@H](CC[C@]12C)[C@@]1(C)CC[C@H](O)[C@H](O)[C@@H]1CC3(F)F (single isomer, unassigned) [Compound 252, (1R,3aS,3bS,5aR,6R,7S,9aR,9bS,11aR)-4,4-difluoro-1-[(2R,6R)-6-(3-fluoro-5-methoxypyridin-4-yl)-6-hydroxyhexan-2-yl]-9a,11a-dimethylhexadecahydro-1H-cyclopenta[1,2-a]phenanthrene-6,7-diol or (1R,3aS,3bS,5aR,6R,7S,9aR,9bS,11aR)-4,4-difluoro-1-[(2R,6S)-6-(3-fluoro-5-methoxypyridin-4-yl)-6-hydroxyhexan-2-yl]-9a,11a-dimethylhexadecahydro-1H-cyclopenta[1,2-a]phenanthrene-6,7-diol] | – | 0.031 µM |
